Conditions: Liquid, isochoric method

FC(F)(F)C(F)(F)C(F)(F)F [octafluoropropane]
Conditions	mass density [kg/m3]
203.51 K, 5337.7 kPa	1748.65
203.54 K, 25066 kPa	1795.66
207.93 K, 30528 kPa	1795.05
207.94 K, 10279 kPa	1747.98
212.07 K, 14905 kPa	1747.39
212.65 K, 36376 kPa	1794.41
216.5 K, 40978 kPa	1793.89
216.54 K, 1000.8 kPa	1689.31
216.88 K, 20281 kPa	1746.74
217.62 K, 2018.3 kPa	1689.13
218.87 K, 3201.2 kPa	1688.94
220.1 K, 4356.8 kPa	1688.75
221 K, 5191.7 kPa	1688.62
221.04 K, 25052 kPa	1746.18
225.96 K, 30368 kPa	1745.54
226.4 K, 10304 kPa	1687.87
230.5 K, 35314 kPa	1744.96
231.73 K, 15327 kPa	1687.19
234.92 K, 39898 kPa	1744.41
235.64 K, 915.8 kPa	1615.88
236.89 K, 20178 kPa	1686.54
237.72 K, 1980.7 kPa	1615.62
239.2 K, 3133.7 kPa	1615.41
240.32 K, 3992.9 kPa	1615.26
241.96 K, 25015 kPa	1685.92
241.97 K, 5288.2 kPa	1615.05
247.06 K, 29611 kPa	1685.32
248.4 K, 10248 kPa	1614.25
253.05 K, 1037.7 kPa	1548.82
253.35 K, 35422 kPa	1684.57
254.58 K, 2042.7 kPa	1548.62
254.84 K, 15219 kPa	1613.5
256.2 K, 3092.6 kPa	1548.41
257.67 K, 4032.3 kPa	1548.23
257.99 K, 39644 kPa	1684.03
259.38 K, 5163.9 kPa	1548.03
260.6 K, 5918.9 kPa	1547.89
261.38 K, 20247 kPa	1612.75
262.2 K, 6953.3 kPa	1547.71
264.92 K, 1305.5 kPa	1498.9
266.69 K, 2167.6 kPa	1498.5
267.42 K, 10407 kPa	1547.12
267.61 K, 24742 kPa	1612.07
268.4 K, 3123.5 kPa	1498.5
270.01 K, 4060.3 kPa	1498.31
272.1 K, 5218.8 kPa	1498.08
273.85 K, 29781 kPa	1611.39
274.19 K, 14632 kPa	1546.4
278.85 K, 1048.7 kPa	1431.66
280.31 K, 34598 kPa	1610.69
280.62 K, 9990.2 kPa	1497.18
280.96 K, 2016.5 kPa	1431.43
282.61 K, 20193 kPa	1545.52
283.12 K, 3037.6 kPa	1431.2
285.2 K, 4021.6 kPa	1430.98
287.19 K, 39685 kPa	1609.96
287.23 K, 4975.5 kPa	1430.78
289.39 K, 15154 kPa	1496.29
290.43 K, 25199 kPa	1544.72
294.19 K, 1027.2 kPa	1348.77
296.89 K, 2032 kPa	1348.25
298.14 K, 10127 kPa	1429.72
298.14 K, 10227 kPa	1432.13
298.15 K, 20139 kPa	1495.43
298.17 K, 30128 kPa	1543.94
299.56 K, 3026.3 kPa	1348.25
302.24 K, 4025.2 kPa	1348
305.19 K, 5144.5 kPa	1347.73
305.57 K, 34457 kPa	1543.21
306.47 K, 24759 kPa	1494.63
308.23 K, 15310 kPa	1431.18
313.2 K, 39261 kPa	1542.45
316.93 K, 30165 kPa	1493.65
318.2 K, 1978.9 kPa	1206.47
318.2 K, 2006.9 kPa	1206.47
318.2 K, 10061 kPa	1346.6
318.2 K, 19323 kPa	1427.89
318.2 K, 20116 kPa	1430.27
318.21 K, 9971.7 kPa	1346.6
322.1 K, 2987.3 kPa	1206.16
325.72 K, 35057 kPa	1492.81
326.06 K, 3974.1 kPa	1205.86
328.08 K, 24771 kPa	1429.38
329.83 K, 4928.6 kPa	1205.58
330.81 K, 14738 kPa	1345.54
332.72 K, 39008 kPa	1492.14
339.5 K, 7422.8 kPa	1204.86
341.2 K, 30200 kPa	1425.83
344.83 K, 20114 kPa	1344.37
353.16 K, 23269 kPa	1343.69
353.16 K, 35743 kPa	1424.77
353.17 K, 10953 kPa	1203.86

Source: the NIST ThermoML archive (doi:10.1021/je300148f)
